{
  "source": "the Deep4Chem optical property database",
  "assay": "solvent given as SMILES",
  "data": [
    {"molecule": "CCCCOc1c(Br)cc2cc(Br)c(OCCCC)c3c4c(OCCCC)c(Br)cc5cc(Br)c(OCCCC)c(c1c23)c54", "values": [
      {"measurement": "emission maximum", "setting": "in ClCCl", "value": 489, "unit": "nm"}
    ]},
    {"molecule": "CC1(C)c2ccccc2N(c2ccc(-c3nc(C#N)c(C#N)nc3-c3ccc(N4c5ccccc5C(C)(C)c5ccccc54)cc3)cc2)c2ccccc21", "values": [
      {"measurement": "emission maximum", "setting": "in Cc1ccccc1", "value": 620, "unit": "nm"},
      {"measurement": "emission maximum", "setting": "in c1cc(-c2cccc(-n3c4ccccc4c4ccccc43)c2)cc(-n2c3ccccc3c3ccccc32)c1", "value": 570, "unit": "nm"}
    ]},
    {"molecule": "COc1ccc(-c2cc3c(ccc4sc5ccc6sc(-c7ccc(C#N)cc7)cc6c5c43)s2)cc1", "values": [
      {"measurement": "emission maximum", "setting": "in ClCCl", "value": 469, "unit": "nm"}
    ]},
    {"molecule": "C(=C\\c1cc(-c2ccccc2)c(/C=C/c2ccc(N(c3ccccc3)c3ccccc3)cc2)cc1-c1ccccc1)/c1ccc(N(c2ccccc2)c2ccccc2)cc1", "values": [
      {"measurement": "emission maximum", "setting": "in ClCCl", "value": 495, "unit": "nm"}
    ]},
    {"molecule": "CC1=CC(C)=[N+]2C1=Cc1c3ccccc3c(C#Cc3cccs3)n1[B-]2(F)F", "values": [
      {"measurement": "emission maximum", "setting": "in CCCCCC", "value": 628, "unit": "nm"},
      {"measurement": "emission maximum", "setting": "in CCCCCCCCO", "value": 636, "unit": "nm"},
      {"measurement": "emission maximum", "setting": "in CCOC(C)=O", "value": 632, "unit": "nm"},
      {"measurement": "emission maximum", "setting": "in CN(C)C=O", "value": 639, "unit": "nm"},
      {"measurement": "emission maximum", "setting": "in ClCCl", "value": 631, "unit": "nm"}
    ]},
    {"molecule": "Cc1cc(C)c(B(c2ccc(C#Cc3cc4ccc5cc(C#Cc6ccc(B(c7c(C)cc(C)cc7C)c7c(C)cc(C)cc7C)cc6)cc6ccc(c3)c4c56)cc2)c2c(C)cc(C)cc2C)c(C)c1", "values": [
      {"measurement": "emission maximum", "setting": "in Cc1ccccc1", "value": 426, "unit": "nm"}
    ]},
    {"molecule": "CN(C)c1ccc2c(c1)C(C)(C)C1=CC(=[N+](C)C)C=CC1=C2C#Cc1ccccc1", "values": [
      {"measurement": "emission maximum", "setting": "in CO", "value": 705, "unit": "nm"},
      {"measurement": "emission maximum", "setting": "in O", "value": 708, "unit": "nm"}
    ]},
    {"molecule": "Cc1cc(-c2ccc(-c3ccccc3)cc2)nc(-c2ccc(-n3c4ccccc4c4ccccc43)cc2)n1", "values": [
      {"measurement": "emission maximum", "setting": "in C1CCOC1", "value": 418, "unit": "nm"},
      {"measurement": "emission maximum", "setting": "in CN(C)C=O", "value": 474, "unit": "nm"},
      {"measurement": "emission maximum", "setting": "in Cc1ccccc1", "value": 386, "unit": "nm"},
      {"measurement": "emission maximum", "setting": "in ClC(Cl)Cl", "value": 416, "unit": "nm"}
    ]},
    {"molecule": "CN(C)c1ccc(C#Cc2ccc3ccc4ccc(C#Cc5ccc(N(C)C)cc5)c5ccc2c3c45)cc1", "values": [
      {"measurement": "emission maximum", "setting": "in C1COCCO1", "value": 491.8, "unit": "nm"},
      {"measurement": "emission maximum", "setting": "in CC(C)=O", "value": 570.9, "unit": "nm"},
      {"measurement": "emission maximum", "setting": "in CCCCCC", "value": 459, "unit": "nm"},
      {"measurement": "emission maximum", "setting": "in CCCCCCO", "value": 531.8, "unit": "nm"},
      {"measurement": "emission maximum", "setting": "in CCO", "value": 543, "unit": "nm"},
      {"measurement": "emission maximum", "setting": "in CCOC(C)=O", "value": 529.9, "unit": "nm"},
      {"measurement": "emission maximum", "setting": "in CO", "value": 555.1, "unit": "nm"},
      {"measurement": "emission maximum", "setting": "in Cc1ccccc1", "value": 482, "unit": "nm"},
      {"measurement": "emission maximum", "setting": "in ClCCl", "value": 532.7, "unit": "nm"}
    ]},
    {"molecule": "COc1ccc(-n2nc(C#N)c(N3CCCCC3)n2)cc1", "values": [
      {"measurement": "emission maximum", "setting": "in CC#N", "value": 415, "unit": "nm"}
    ]},
    {"molecule": "Clc1cc(Cl)c(B2c3ccccc3Nc3ccccc32)c(Cl)c1", "values": [
      {"measurement": "emission maximum", "setting": "in ClCCl", "value": 413, "unit": "nm"}
    ]},
    {"molecule": "CCCCN(CCCC)c1ccc(C#Cc2cc(C#Cc3ccc(N(CCCC)CCCC)cc3)c(C#Cc3cc(C(F)(F)F)cc(C(F)(F)F)c3)cc2C#Cc2cc(C(F)(F)F)cc(C(F)(F)F)c2)cc1", "values": [
      {"measurement": "emission maximum", "setting": "in ClCCl", "value": 552, "unit": "nm"},
      {"measurement": "emission maximum", "setting": "in c1ccccc1", "value": 514, "unit": "nm"}
    ]},
    {"molecule": "CCOC(=O)C1=C(C(=O)OCC)C2(c3ccccc3-c3ccccc32)[C@@H](c2ccccc2)C=C2c3cc(OC)c(OC)cc3CCN21", "values": [
      {"measurement": "emission maximum", "setting": "in ClCCl", "value": 430, "unit": "nm"}
    ]},
    {"molecule": "CN(C)CCN(Cc1c2ccccc2cc2ccccc12)c1ccc([N+](=O)[O-])cc1[N+](=O)[O-]", "values": [
      {"measurement": "emission maximum", "setting": "in C1CCCCC1", "value": 391, "unit": "nm"},
      {"measurement": "emission maximum", "setting": "in C1CCOC1", "value": 394, "unit": "nm"},
      {"measurement": "emission maximum", "setting": "in CC#N", "value": 394, "unit": "nm"},
      {"measurement": "emission maximum", "setting": "in CC(C)=O", "value": 393, "unit": "nm"},
      {"measurement": "emission maximum", "setting": "in CCO", "value": 394, "unit": "nm"},
      {"measurement": "emission maximum", "setting": "in CN(C)C=O", "value": 396, "unit": "nm"},
      {"measurement": "emission maximum", "setting": "in CO", "value": 392, "unit": "nm"},
      {"measurement": "emission maximum", "setting": "in CS(C)=O", "value": 398, "unit": "nm"},
      {"measurement": "emission maximum", "setting": "in ClC(Cl)Cl", "value": 394, "unit": "nm"},
      {"measurement": "emission maximum", "setting": "in ClCCl", "value": 393, "unit": "nm"}
    ]},
    {"molecule": "CCCCN1c2ccc(/C=C/c3cc(=O)oc4cc(C)ccc34)cc2Sc2cc(/C=C/c3cc(=O)oc4cc(C)ccc34)ccc21", "values": [
      {"measurement": "emission maximum", "setting": "in ClC(Cl)Cl", "value": 620, "unit": "nm"}
    ]},
    {"molecule": "CN(C)c1cc(-c2ccc(C#Cc3ccccc3)cc2)cc2ccccc12", "values": [
      {"measurement": "emission maximum", "setting": "in CC#N", "value": 500.89, "unit": "nm"},
      {"measurement": "emission maximum", "setting": "in CCO", "value": 471.6, "unit": "nm"},
      {"measurement": "emission maximum", "setting": "in ClCCl", "value": 470, "unit": "nm"}
    ]},
    {"molecule": "Nc1nc2c(ncn2[C@H]2C[C@H](O)[C@@H](CO)O2)c(=O)[nH]1", "values": [
      {"measurement": "emission maximum", "setting": "in O", "value": 338.98, "unit": "nm"}
    ]},
    {"molecule": "O=C1OC(=O)c2cc(Oc3ccccc3)c3c4ccc5c6c(cc(Oc7ccccc7)c(c7ccc1c2c73)c64)C(=O)OC5=O", "values": [
      {"measurement": "emission maximum", "setting": "in C1CCOC1", "value": 560, "unit": "nm"},
      {"measurement": "emission maximum", "setting": "in CN1CCCC1=O", "value": 595, "unit": "nm"},
      {"measurement": "emission maximum", "setting": "in CN(C)C=O", "value": 572, "unit": "nm"}
    ]},
    {"molecule": "N#Cc1ccc(/C=C/c2ccc(C=C(c3ccccc3)c3ccccc3)cc2)cc1", "values": [
      {"measurement": "emission maximum", "setting": "in C1CCOC1", "value": 456, "unit": "nm"}
    ]},
    {"molecule": "N#Cc1cccc2[nH]ccc12", "values": [
      {"measurement": "emission maximum", "setting": "in C1CCOC1", "value": 371, "unit": "nm"},
      {"measurement": "emission maximum", "setting": "in C1COCCO1", "value": 369, "unit": "nm"},
      {"measurement": "emission maximum", "setting": "in CC#N", "value": 380, "unit": "nm"},
      {"measurement": "emission maximum", "setting": "in CC(C)O", "value": 385, "unit": "nm"},
      {"measurement": "emission maximum", "setting": "in CCO", "value": 387, "unit": "nm"},
      {"measurement": "emission maximum", "setting": "in CO", "value": 390, "unit": "nm"},
      {"measurement": "emission maximum", "setting": "in CS(C)=O", "value": 392, "unit": "nm"},
      {"measurement": "emission maximum", "setting": "in O", "value": 405, "unit": "nm"},
      {"measurement": "emission maximum", "setting": "in OCC(F)(F)F", "value": 394, "unit": "nm"}
    ]}
  ]
}
